Test results: patent US20210268030A1, “FIBROADIPOGENIC PROGENITOR-DERIVED EXOSOMES FOR REGENERATION OF DYSTROPHIC MUSCLES” (EXOFIX S.R.L., priority 2018, published 2021)

Tested on: miRs within FAP-derived exosomes
Assay: Taqman-based miR expression microarray of FAP-derived exosomes
Assay type: in vivo
Details: mdx mice treated for 15 days with TSA vs control vehicle
Description: Total exosomal RNA was extracted with Total Exosome RNA Protein Isolation Kit (#4478545, Thermo Fisher Scientific). TaqMan MicroRNA Assays were performed according to the manufacturer's recommended protocols (Applied Biosystems) The threshold cycle (Ct) were defined as the fractional cycle number at which the fluorescence passes the fixed threshold. U6 snRNA served as an endogenous control for normalization.
In particular, total exosomal-RNA was retro-transcribed using TaqMan MicroRNA Reverse Transcription Kit (#4366596, ThermoFisher Scientific)
For greater sensitivity, the cDNA was pre-amplified using Taqman PREAMP master mix (#4391128, ThermoFisher Scientific) and Megaplex PreAMP Primers and then amplified using high multiplexed Megaplex Primer Pool (#4444766, ThermoFisher Scientific) and the TaqMan 2× Universal Master Mix II (#4440040, ThermoFisher Scientific) on TaqMan rodent MicroRNA A/B cards Array version 3.0 (#4444909, ThermoFisher Scientific).
We then determined the identity of the miRs within FAP-derived exosomes, by performing a Taqman-based miR expression microarray from exosomes isolated from the supernatant of FAPs derived by mdx mice treated for 15 days with TSA or control vehicle (CTR).

CC(/C=C/C(=O)NO)=C\[C@@H](C)C(=O)c1ccc(N(C)C)cc1 [TSA, Trichostatin A]
miRs in exosomes from FAPs: several miRs up-regulated
